Measurements as given in US20150329918A1, “JAGGED1 AS A MARKER AND THERAPEUTIC TARGET FOR BREAST CANCER BONE METASTASIS” (The Trustees of Princeton University, priority 2011, published 2015).

How the values were obtained:
[1] = system: JAG1 OE tumor cells bone metastasis; test: Bone metastasis xenograft, JAG1 OE tumor cells, MRK-003 treatment; format: in vivo, mouse
Description: For bone metastsis studies, 10^5 tumor cells were injected into the left cardiac ventricle of anesthetized female athymic Ncr-nu/nu or BALB/c mice. Development of metastases was monitored by BLI. Bioluminescence images were acquired with a Xenogen IVIS 200 Imaging System. Analysis was performed with Living Image software by measuring photon flux in the hindlimbs of mice. Data were normalized to the signal on day 7. Bone metastasis-free survival curves represent the time point at which each mouse developed bone metastasis by threshold BLI signals in the hindlimbs. […]
Osteolysis was assessed by X-ray radiography. […] Osteolytic lesions were identified on radiographs as demarcated radiolucent lesions in the bone and quantified using the ImageJ software (National Institutes of Health).
Hindlimb bones were excised from mice at the end point of each experiment, immediately after the last BLI time point. […] For quantitative analysis of lesion area, a 5× objective was used to focus on the tumor region of interest and images were acquired using the AxioCamICc3 camera set to an exposure of 100 ms. Lesions that were larger than the field of view were quantified by acquiring multiple images to encompass the entire lesion. The “spline” function of the AxioVision software was used to outline the region of interest and subsequently quantify the lesion area. […]

SCP2 bone metastasis = test: Bone metastasis xenograft, SCP2 cells injected intracardially, MRK-003 treatment; format: in vivo, mouse
Description: For bone metastsis studies, 10^5 tumor cells were injected into the left cardiac ventricle of anesthetized female athymic Ncr-nu/nu or BALB/c mice. Development of metastases was monitored by BLI. Bioluminescence images were acquired with a Xenogen IVIS 200 Imaging System. Analysis was performed with Living Image software by measuring photon flux in the hindlimbs of mice. Data were normalized to the signal on day 7. Bone metastasis-free survival curves represent the time point at which each mouse developed bone metastasis by threshold BLI signals in the hindlimbs. For the orthotopic xenograft model, mammary fat pad injections and primary tumor size measurements were performed following the procedure described previously (Minn et al., 2005, which is incorporated herein by reference as if fully set forth).
Osteolysis was assessed by X-ray radiography. Anesthetized mice were placed on single wrapped films (X-OMAT AR, Eastman Kodak) and exposed to X-ray radiography at 35 kV for 15 s using a MX-20 Faxitron instrument. Films were developed using a Konica SRX-101A processor. Osteolytic lesions were identified on radiographs as demarcated radiolucent lesions in the bone and quantified using the ImageJ software (National Institutes of Health).
Hindlimb bones were excised from mice at the end point of each experiment, immediately after the last BLI time point. Following this, the tumor-bearing hind limb bones were fixed in 10% neutral-buffered formalin, decalcified in 10% EDTA for 2 weeks, and embedded in paraffin for hematoxylin and eosin (H&E), tartrate-resistant acid phosphatase (TRAP) (Kos et al., 2003, which is incorporated herein by reference as if fully set forth), or immunohistochemical staining. Histomorphometric analysis was performed on H&E stained bone metastasis samples using the Zeiss Axiovert 200 microscope and the AxioVision software version 4.6.3 SP1. For quantitative analysis of lesion area, a 5× objective was used to focus on the tumor region of interest and images were acquired using the AxioCamICc3 camera set to an exposure of 100 ms. Lesions that were larger than the field of view were quantified by acquiring multiple images to encompass the entire lesion. The “spline” function of the AxioVision software was used to outline the region of interest and subsequently quantify the lesion area. Osteoclast number was assessed as multinucleated TRAP^+ cells along the tumor-bone interface and reported as number/mm of interface (Yin et al., 2003, which is incorporated herein by reference as if fully set forth). Immunohistochemical analysis was performed with heat-induced antigen retrieval. Primary antibodies used were anti-JAGGED1 (Santa Cruz, sc-6011) and anti-Ki67 (Dako, Denmark). Biotinylated secondary antibody was used with Vectastain ABC Kit (Vector Laboratories) and DAB detection kit (Zymed) to reveal the positively stained cells with nuclei counterstained with hematoxylin.
MRK-003 is a potent and specific gamma-secretase inhibitor whose biochemical, cellular and pharmacological properties have been extensively studied and reported. MRK-003 is a cyclic sulfamide with sub-nanomolar potency inhibiting gamma-secretase-mediated cleavage of Notch to its active form (NICD) (Lewis et al., 2007, which is incorporated herein by reference as if fully set forth). […] For xenograft experiments, mice were administered the vehicle (0.5% methylcellulose) or MRK-003 by oral gavage twice a week at a 100 mg/kg dosage. The dosing schedule was 2-days on, 5-days off. […]

MC3T3-E1 osteoblasts = test: Microarray gene expression profiling of FACS-separated MC3T3-E1 osteoblasts; format: cell-based, mouse; settings: FIG. 11B
Source text: For microarray analysis the quality of the FACS-separated MC3T3-E1 RNA samples was monitored using the 2100 bioanalyzer (Agilent) before gene expression profiling with the Agilent mouse […] microarrays. To find genes regulated by JAGGED1 and MRK-003 in osteoblasts, expression data of MC3T3-E1 under the indicated coculture and treatment conditions were generated and normalized by the array median, and probes were filtered by the expression levels. Probes with >2-fold changes in MC3T3-E1 cells cocultured with JAG1 OE tumor cells relative to vector-control tumor cells were identified as the regulated genes.

[2] = LoRusso et al, AACR 2009; cited from earlier work
[3] = system: Notch target genes (Hes1, Hey1, HeyL and TGFβ1); test: qRT-PCR of Notch target genes in MC3T3-E1 osteoblasts FACS-separated from cocultures; format: cell-based, mouse; settings: osteoblasts FACS-separated from JAG1 OE coculture; FIG. 7B
Description: For gene expression analysis, MC3T3-E1 cells were grown to confluence in 10 cm culture dishes. The 2×10^5 GFP+ control or JAG1 OE cells were seeded onto the plate in osteoblast media. Cell sorting was performed to purify the GFP-negative MC3T3-E1 osteoblasts 5 days after initial coculture. RNA from FACS-separated MC3T3-E1 cells was collected in RLT lysis buffer, extracted with RNeasy Mini Kit (QIAGEN), and subjected to quantitative RT-PCR.
RNA from in vitro cultured cells or flow cytometry-separated cells was collected in RLT lysis buffer and extracted with RNeasy mini kit (Qiagen). RNA extraction from in vivo tissue samples was performed using Trizol (Invitrogen) according to the manufacturer's protocol. cDNA synthesis of RNA was performed using Superscript III First-Strand (Invitrogen). Quantitative RT-PCR was performed using Power Syber Green PCR Master Mix (Applied Biosystems) with the ABI Prism 7900HT thermocycler (Applied Biosystems) according to the manufacturer's protocol. A standard curve for each gene was generated by serial dilutions of a standard. Values were then normalized by the amount of GAPDH or β-actin in each sample. For in vivo samples, species-specific primers were employed for gene expression analysis in the tumor compartment (human) versus stroma compartment (mouse).

## O=S1(=O)N[C@@]2(CN1CC(F)(F)F)[C@@H]1CC[C@H]2Cc2ccc(/C=C/CN3CCC(C(F)(F)F)CC3)cc2C1 [MRK-003]
[1]; JAG1 OE, FIG. 17D
  osteolysis: reduced
[1]; tumor signal decreased to levels of control group, FIGS. 17B-17C
  reduction of bone metastasis in the JAG1 OE group: more than 6 fold
SCP2 bone metastasis; 100 mg/kg oral gavage twice a week, FIG. 16A
  reduction in bone metastasis burden by BLI: 5 fold
SCP2 bone metastasis; FIG. 16B
  delay in the onset of bone metastasis: ~10 days
SCP2 bone metastasis; FIG. 16C
  number of bone lesions: reduced
SCP2 bone metastasis; FIG. 16D
  reduction in X-ray lesion area: 2 fold
SCP2 bone metastasis; bone-tumor interface, FIG. 16E
  decrease in the number of TRAP+ osteoclasts: 3 fold
MC3T3-E1 osteoblasts
  123 genes activated at least 3-fold in MC3T3-E1 by JAG1 OE coculture: concomitantly downregulated
[2]
  clinical responses with once-weekly dosing: strong clinical responses
  tolerability of once-weekly dosing in the clinic: well-tolerated
[3]
  Notch target genes (Hes1, Hey1, HeyL and TGFβ1) mRNA in osteoblasts: downregulated
